Series [1] is described as follows: Plasma protein binding, dilution method.
The subject of the next series is P. falciparum strain 3D7. Briefly: In vitro parasite reduction ratio. Particulars: 10-fold IC50; 28 days recovery in drug-free medium. The format is cell-based, Plasmodium falciparum.
For another series, the system named is Pf NF54. Briefly: 72 h [3H]hypoxanthine incorporation assay. The format is cell-based. The following applies: Plasmodium falciparum, NF54, 72 h.
Series [2] has as its system chloroquine-sensitive and chloroquine-resistant P. falciparum strains. Put plainly: Initial antiplasmodial in vitro assessment. The format is cell-based. The following applies: Plasmodium falciparum, read-out: IC50 (range over strains).
The test system of the next series is P. falciparum Dd2 Polδ. Briefly: Single-step resistance selection assay. The class given is cell-based, Plasmodium falciparum.
A further series has as its system P. falciparum isolates. Briefly: Ex vivo growth inhibition assay of clinical isolates. The class given is cell-based. Particulars: Plasmodium falciparum.
The next series relates to RF12 (PH-1263-C). Briefly: microbe, parasite or virus in culture. The format is cell-based. Particulars: Plasmodium falciparum, 72 h, read-out: IC50, RF12 (PH-1263-C).
Series [3] in a line: Chemical stability in aqueous solution. The class given is physicochemical. Particulars: phosphate buffer pH 7.4, room temperature, over 24 h, n = 3.
Another series is described as follows: Plasma stability. The class given is in vitro ADME, human.
Series [4] can be described thus: Microsomal binding, equilibrium dialysis. The format is in vitro ADME. Particulars: human, human liver microsomes, microsomal binding (fraction bound), 1 μM in 0.5 mg/mL HLMs. Background: Equilibrium dialysis compares concentrations on both sides of a semipermeable membrane.
Series [5] can be described thus: Snapshot pharmacokinetics. The format is in vivo. The following applies: P. berghei mice, single oral administration of 3, 10 and 30 mg/kg.
The test system of series [6] is Plasmodium berghei. Put plainly: Standard four-day Peters test in P. berghei-infected mice. Particulars: for cured: parasite-free mice on day 30.
Series [7] can be described thus: Calculation of hepatic clearance and hepatic extraction ratio. The following applies: calculated from in vitro assays.
For series [8] the following is noted: cited from earlier work.
The conditions of series [9]: cited from earlier work. This is another data set of the same source.
In the next series the test system is Pf Dd2. Briefly: Antiplasmodial in vitro activity, HRP2 ELISA. The class given is cell-based. Particulars: Plasmodium falciparum, DD2, read-out: Pf Dd2 IC50 ± SD. (An ELISA detects its analyte on a solid surface through an enzyme-linked reagent.)
Series [10] in a line: Plasma protein binding, standard equilibrium dialysis assay. The class given is in vitro ADME.
In a further series the test system is HeLa cells. Particulars: read-out: HeLa IC50 (n1; n2); previously published; cited from earlier work.
In another series the test system is HEK293 cells. Particulars: read-out: HEK293 IC50 (n1; n2); previously published; cited from earlier work.
Series [11] has as its system Plasmodium berghei. Particulars: previously published, cited from earlier work.

Read-outs that look alike come from different tables or passages of the source. Marks after values point to notes of the source that are not given here. A value given as a limit tells only on which side of the number the result lay.

With `CCC(C)n1ncn(-c2ccc(N3CCN(c4ccc(OCC5COC(Cn6cncn6)(c6ccc(Cl)cc6Cl)O5)cc4)CC3)cc2)c1=O` (centres unmarked) [itraconazole, reference compound], the fraction unbound (in general, the share of the substance not bound to proteins or other matrix) at 24 h, 25 ng/mL in [1] (plasma diluted 1:10 or 1:20 in 0.9% saline) is 0.006.
Regarding `O=C1C(O)=C([C@H]2CC[C@H](c3ccc(Cl)cc3)CC2)C(=O)c2ccccc21` [atovaquone, reference compound], the “exposure time reducing the number of viable parasites to baseline” value (from here on “exposure time reducing the number”) in the series on P. falciparum strain 3D7 stood at 120 h.
Regarding `Cl.N=C(CC(O)c1cc2c(F)cc(F)cc2c2cc(C(F)(F)F)ccc12)Nc1ccc(F)cc1` (centres unmarked) [2 (TKK130), (Z)-3-(1,3-Difluoro-6-(trifluoromethyl)phenanthrene-9-yl)-N′-(4-fluorophenyl)-3-hydroxypropanimidamid Hydrochlorid], the IC50 (commonly the concentration at which inhibition is half-maximal) in the series with Pf NF54 (read-out: IC50, NF54) is 12 nM; in series [2], 2 to 12 nM; in the series on P. falciparum isolates (read-out: max IC50), 25.1 nM; with P. falciparum isolates (read-out: min IC50), 1.4 nM; in the series on RF12 (PH-1263-C) it was 4 nM. The “exposure time reducing the number” value with P. falciparum strain 3D7 is at most 24 h. Further, in the series with P. falciparum Dd2 Polδ (9 nM (3-fold IC50), inocula 2 × 10^7 and 2 × 10^9), the “day on which treated cultures were clear” value was 4 days. In the series with P. falciparum Dd2 Polδ (9 nM, inocula 2 × 10^7 and 2 × 10^9, 60 days of recovery time), the “parasite growth after selection” value is on record as “no subsequent parasite growth could be observed”. Also, in series [3], the chemical stability was over 90%. In addition, the half-life (usually how long it takes for the measured level to halve) at 25 ng/mL in “Plasma stability” (human, plasma) was 2.79 days. In [4], this molecule had a fraction unbound at 24 h, 1 μM of 0.026. For the same molecule, in series [5], the “time at which maximum concentration was reached” value was determined as 4 h. The same molecule gave a fraction unbound at 24 h, 25 ng/mL in series [1] (plasma) of 0.004. Moreover, the “signs of toxicity during the in vivo studies” value in the series on Plasmodium berghei [6] (mice, oral dosing) is listed as “no obvious signs of toxicity”. The cured is on record as 0/3 in the series with Plasmodium berghei [6] (oral 4 × 3 mg/kg), 1/3 in the series with Plasmodium berghei [6] (oral 4 × 10 mg/kg), 3/3 in the series on Plasmodium berghei [6] (oral 4 × 30 mg/kg) and 3/3 with Plasmodium berghei [6] (oral 4 × 50 mg/kg). In addition, the hepatic extraction ratio in series [7] is given as 0.17. The hepatic clearance in [7] (hepatic blood flow 1500 mL/min) is 0.25 L/min.
Take `C[C@@H]1CC[C@H]2[C@@H](C)C(=O)O[C@@H]3O[C@@]4(C)CC[C@@H]1[C@]32OO4` [AS, Artemisinin, reference compound]: the cured with Plasmodium berghei [6] (oral 4 × 30 mg/kg) is listed as 0/10.
Take `CCc1nc(N)nc(N)c1-c1ccc(Cl)cc1` [pyrimethamine, reference compound]: the “exposure time reducing the number” value in the series on P. falciparum strain 3D7 came out at 72 h.
Take `CCCCN(CCCC)CCC(O)c1cc2c(Cl)cc(Cl)cc2c2cc(C(F)(F)F)ccc12` (centres unmarked) [Hf, Halofantrine]: the “microsomal stability (60 min), Clint” value in series [8] was “Clint = 26.9 μL/min/mg^d”. For the same molecule, the plasma protein binding in series [9] (plasma) is reported as >99^d %.
Take `CCN(CC)CCCC(C)Nc1ccnc2cc(Cl)ccc12` (centres unmarked) [CQ, Chloroquine]: the half-maximal inhibitory concentration (IC50) in the series on Pf Dd2 was determined as 240 ± 130 nM; with Pf NF54 (read-out: IC50, NF54), 11 nM; in the series with Pf NF54 (read-out: Pf NF54 IC50 ± SD), 12 ± 1 nM. Moreover, the cured in the series with Plasmodium berghei [6] (oral 4 × 30 mg/kg) is 0/10.
As for `Cc1cc(Nc2ccc(S(F)(F)(F)(F)F)cc2)n2nc(C(C)(F)F)nc2n1` [DSM265, reference compound], the “day of recrudescence of parasites” value in the series with P. falciparum Dd2 Polδ (12 nM (3-fold IC50), inoculum 2 × 10^7 per flask, all three replicate flasks) is 16 days.
As to `COc1ccc(/N=C(\N)CC(O)c2cc3c(F)cc(F)cc3c3cc(C(F)(F)F)ccc23)cc1` (centres unmarked) [1 (TKK129)], the “exposure time reducing the number” value in the series on P. falciparum strain 3D7 is reported as at most 24 h. Further, the plasma stability in “Plasma stability” (at 37 °C, time without decrease) turned out to be 24 h at 37 °C. The fraction unbound at 24 h, 25 ng/mL in series [10] was under 0.01. The IC50 in the series on HeLa cells is 46.1 µM; with HEK293 cells, 36.8 µM. In addition, in the series on Plasmodium berghei [11] (oral 4 × 3 mg/kg), the MSD result is given as “euthanized”. Further, the cured is on record as 0/3 with Plasmodium berghei [11] (oral 4 × 3 mg/kg), 0/3 in the series with Plasmodium berghei [11] (oral 4 × 10 mg/kg), 1/3 in the series on Plasmodium berghei [11] (oral 4 × 30 mg/kg) and 2/3 with Plasmodium berghei [11] (oral 4 × 50 mg/kg).
For `CCCCN(CCCC)CC(O)c1cc(Cl)cc2c1-c1ccc(Cl)cc1/C2=C/c1ccc(Cl)cc1` (centres unmarked) [LUM, Lumefantrine], the “microsomal stability (60 min), Clint” value in series [8] is on record as “Clint = <7 μL/min/mg^d”. In series [9], the plasma protein binding is reported as >99^d %. The cured with Plasmodium berghei [6] (oral 4 × 30 mg/kg) is recorded as 3/3.
